How the values were obtained:
Assay in all cases: Test E pre-/postemergence herbicide test
prickly sida = format: in vivo, Sida spinosa
Description: (§1) Seeds of plant species selected from bipinnate beggarticks (Bidens bipinnata L.), hairy beggarticks (Bidens radiata Thuill.), bermudagrass (Cynodon dactylon (L.) Pers.), Surinam grass (Urochloa decumbens (Staph) R. D. Webster, previously named Brachiaria decumbens Stapf), large crabgrass (Digitaria sanguinalis (L.) Scop.), green foxtail (Setaria viridis (L.) P. Beauv.), goosegrass (Eleusine indica (L.) Gaertn.), johnsongrass (Sorghum halepense (L.) Pers.), kochia (Kochia scoparia (L.) Schrad.), pitted morningglory (Ipomoea lacunosa L.), purple nutsedge (Cyperus rotundus L.), common ragweed (Ambrosia elatior L.), mustard (Brassica nigra (L.) W. D. J. Koch), guineagrass (Panicum maximum Jacq.), dallisgrass (Paspalum dilatatum Poir.), barnyardgrass (Echinochloa crus-galli (L). P. Beauv.), southern sandbur (Cenchrus echinatus L.), common sowthistle (Sonchus oleraceous L.), prickly sida (Sida spinosa L.), Italian ryegrass (Lolium multiflorum Lam.), common purslane (Portulaca oleracea L.), broadleaf signalgrass (Brachiaria platyphylla (Griseb.) Nash), common groundsel (Senecio vulgaris L.), common chickweed (Stellaria media (L.) Vill/Cyr.), tropical spiderwort (Commelina benghalensis L.), annual bluegrass (Poa annua L.), downy bromegrass (Bromus tectorum L.), itchgrass (Rottboellia cochinchinensis (L.) L.f.), quackgrass (Elytrigia repens (L.) Nevski), Canada horseweed (Erigeron Canadensis L.), field bindweed (Convolvulus arvensis L.), spotted spurge (Euphorbia maculata L.), common mallow (Malva sylvestris (=s silvestris) L.), and Russian thistle (Salsola kali L. ssp. Ruthenica (Iljin) Soo) were planted and treated preemergence with test chemicals formulated in a non-phytotoxic solvent mixture which included a surfactant.
(§2) At the same time, plants selected from these weed species were treated with postemergence applications of some of the test chemicals formulated in the same manner. Plants ranged in height from 2 to 18 cm (1- to 4-leaf stage) for postemergence treatments. Treated plants and controls were maintained in a greenhouse for 12 to 14 days, after which time all species were compared to controls and visually evaluated. Plant response ratings, summarized in Table E, are based on a scale of 0 to 100 where 0 is no effect and 100 is complete control. A dash (-) response means no test result.

Italian ryegrass = format: in vivo, Lolium multiflorum
Description: as §1, §2

common mallow = format: in vivo, Malva sylvestris
Description: as §1, §2

mustard = format: in vivo, Brassica nigra
Description: as §1, §2

pitted morningglory = format: in vivo, Ipomoea lacunosa
Description: as §1, §2

annual bluegrass = format: in vivo, Poa annua
Description: as §1, §2

tropical spiderwort = format: in vivo, Commelina benghalensis
Description: as §1, §2

[1] = Postemergence, 500 g ai/ha, scale 0 to 100
[2] = Postemergence, 250 g ai/ha, scale 0 to 100
[3] = Preemergence, 125 g ai/ha, scale 0 to 100
[4] = Preemergence, 250 g ai/ha, scale 0 (no effect) to 100 (complete control)
[5] = Preemergence, 375 g ai/ha, scale 0 (no effect) to 100 (complete control)
[6] = Preemergence, 500 g ai/ha, scale 0 (no effect) to 100 (complete control)
[7] = postemergence, 125 g ai/ha, scale 0 to 100
[8] = postemergence, 62 g ai/ha, scale 0 to 100
[9] = Preemergence, 62 g ai/ha, scale 0 to 100

SMILES: CCn1nc(C(C)(C)C)cc1C(=O)Nc1cc(C(=S)N(C)C)ccc1F [Compound 294]
- Plant response rating, Prickly Sida (prickly sida; [1]): 100
- Plant response rating, Prickly Sida (prickly sida; [2]): 80
- Plant response rating, Prickly Sida (prickly sida; [3]): 100
- Plant response rating, Prickly Sida (prickly sida; [4]): 100
- Plant response rating, Prickly Sida (prickly sida; [5]): 100
- Plant response rating, Prickly Sida (prickly sida; [6]): 100
- Plant response rating, Prickly Sida (prickly sida; [7]): 70
- Plant response rating, Prickly Sida (prickly sida; [8]): 50
- Plant response rating, Ryegrass, Italian (Italian ryegrass; [1]): 95
- Plant response rating, Ryegrass, Italian (Italian ryegrass; [2]): 95
- Plant response rating, Ryegrass, Italian (Italian ryegrass; [3]): 80
- Plant response rating, Ryegrass, Italian (Italian ryegrass; [4]): 100
- Plant response rating, Ryegrass, Italian (Italian ryegrass; [5]): 100
- Plant response rating, Ryegrass, Italian (Italian ryegrass; [6]): 100
- Plant response rating, Ryegrass, Italian (Italian ryegrass; [7]): 80
- Plant response rating, Ryegrass, Italian (Italian ryegrass; [8]): 70
- Plant response rating, Mallow (common mallow; [1]): 100
- Plant response rating, Mallow (common mallow; [2]): 50
- Plant response rating, Mallow (common mallow; [3]): 40
- Plant response rating, Mallow (common mallow; [4]): 40
- Plant response rating, Mallow (common mallow; [6]): 80
- Plant response rating, Mallow (common mallow; [7]): 40
- Plant response rating, Mallow (common mallow; [8]): 20
- Plant response rating, Black Mustard (mustard; [1]): 95
- Plant response rating, Black Mustard (mustard; [2]): 90
- Plant response rating, Black Mustard (mustard; [3]): 100
- Plant response rating, Black Mustard (mustard; [4]): 100
- Plant response rating, Black Mustard (mustard; [5]): 100
- Plant response rating, Black Mustard (mustard; [6]): 100
- Plant response rating, Black Mustard (mustard; [7]): 90
- Plant response rating, Black Mustard (mustard; [8]): 70
- Plant response rating, Morningglory (pitted morningglory; [1]): 20
- Plant response rating, Morningglory (pitted morningglory; [2]): 20
- Plant response rating, Morningglory (pitted morningglory; [3]): 10
- Plant response rating, Morningglory (pitted morningglory; [4]): 10
- Plant response rating, Morningglory (pitted morningglory; [5]): 40
- Plant response rating, Morningglory (pitted morningglory; [6]): 70
- Plant response rating, Morningglory (pitted morningglory; [7]): 10
- Plant response rating, Morningglory (pitted morningglory; [8]): 0
- Plant response rating, Bluegrass (annual bluegrass; [1]): 95
- Plant response rating, Bluegrass (annual bluegrass; [2]): 95
- Plant response rating, Bluegrass (annual bluegrass; [3]): 95
- Plant response rating, Bluegrass (annual bluegrass; [4]): 95
- Plant response rating, Bluegrass (annual bluegrass; [5]): 95
- Plant response rating, Bluegrass (annual bluegrass; [6]): 100
- Plant response rating, Bluegrass (annual bluegrass; [7]): 95
- Plant response rating, Bluegrass (annual bluegrass; [8]): 95
- Plant response rating, Spiderwort (tropical spiderwort; [1]): 90
- Plant response rating, Spiderwort (tropical spiderwort; [2]): 70
- Plant response rating, Spiderwort (tropical spiderwort; [4]): 85
- Plant response rating, Spiderwort (tropical spiderwort; [5]): 90
- Plant response rating, Spiderwort (tropical spiderwort; [6]): 95
- Plant response rating, Spiderwort (tropical spiderwort; [7]): 30
- Plant response rating, Spiderwort (tropical spiderwort; [8]): 20

SMILES: CCn1nc(C2(C)CC2)cc1C(=O)Nc1cc(C(=O)N(C)C)ccc1F [Compound 299]
- Plant response rating, Prickly Sida (prickly sida; [1]): 95
- Plant response rating, Prickly Sida (prickly sida; [2]): 95
- Plant response rating, Prickly Sida (prickly sida; [9]): 85
- Plant response rating, Prickly Sida (prickly sida; [3]): 85
- Plant response rating, Prickly Sida (prickly sida; [4]): 100
- Plant response rating, Prickly Sida (prickly sida; [6]): 100
- Plant response rating, Prickly Sida (prickly sida; [7]): 95
- Plant response rating, Prickly Sida (prickly sida; [8]): 60
- Plant response rating, Ryegrass, Italian (Italian ryegrass; [1]): 85
- Plant response rating, Ryegrass, Italian (Italian ryegrass; [2]): 85
- Plant response rating, Ryegrass, Italian (Italian ryegrass; [9]): 70
- Plant response rating, Ryegrass, Italian (Italian ryegrass; [3]): 95
- Plant response rating, Ryegrass, Italian (Italian ryegrass; [4]): 100
- Plant response rating, Ryegrass, Italian (Italian ryegrass; [6]): 100
- Plant response rating, Ryegrass, Italian (Italian ryegrass; [7]): 80
- Plant response rating, Ryegrass, Italian (Italian ryegrass; [8]): 60
- Plant response rating, Mallow (common mallow; [1]): 100
- Plant response rating, Mallow (common mallow; [2]): 50
- Plant response rating, Mallow (common mallow; [9]): 50
- Plant response rating, Mallow (common mallow; [3]): 75
- Plant response rating, Mallow (common mallow; [4]): 95
- Plant response rating, Mallow (common mallow; [6]): 100
- Plant response rating, Mallow (common mallow; [7]): 30
- Plant response rating, Mallow (common mallow; [8]): 10
- Plant response rating, Black Mustard (mustard; [1]): 100
- Plant response rating, Black Mustard (mustard; [2]): 100
- Plant response rating, Black Mustard (mustard; [9]): 100
- Plant response rating, Black Mustard (mustard; [3]): 100
- Plant response rating, Black Mustard (mustard; [4]): 100
- Plant response rating, Black Mustard (mustard; [6]): 95
- Plant response rating, Black Mustard (mustard; [7]): 100
- Plant response rating, Black Mustard (mustard; [8]): 100
- Plant response rating, Morningglory (pitted morningglory; [1]): 60
- Plant response rating, Morningglory (pitted morningglory; [2]): 40
- Plant response rating, Morningglory (pitted morningglory; [9]): 10
- Plant response rating, Morningglory (pitted morningglory; [3]): 75
- Plant response rating, Morningglory (pitted morningglory; [4]): 90
- Plant response rating, Morningglory (pitted morningglory; [7]): 20
- Plant response rating, Morningglory (pitted morningglory; [8]): 10
- Plant response rating, Bluegrass (annual bluegrass; [1]): 100
- Plant response rating, Bluegrass (annual bluegrass; [2]): 80
- Plant response rating, Bluegrass (annual bluegrass; [9]): 85
- Plant response rating, Bluegrass (annual bluegrass; [3]): 95
- Plant response rating, Bluegrass (annual bluegrass; [4]): 95
- Plant response rating, Bluegrass (annual bluegrass; [6]): 100
- Plant response rating, Bluegrass (annual bluegrass; [7]): 70
- Plant response rating, Bluegrass (annual bluegrass; [8]): 60
- Plant response rating, Spiderwort (tropical spiderwort; [1]): 90
- Plant response rating, Spiderwort (tropical spiderwort; [2]): 80
- Plant response rating, Spiderwort (tropical spiderwort; [3]): 85
- Plant response rating, Spiderwort (tropical spiderwort; [4]): 95
- Plant response rating, Spiderwort (tropical spiderwort; [6]): 100
- Plant response rating, Spiderwort (tropical spiderwort; [7]): 80
- Plant response rating, Spiderwort (tropical spiderwort; [8]): 10

From patent publication US20060069132A1, “Azolecarboxamide herbicides” (priority 2004, published 2006)
